Results on one compound are retold here after PMC10707468, “Pharmacokinetics of Novel Dopamine Transporter Inhibitor CE-123 and Modafinil with a Focus on Central Nervous System Distribution” (International Journal of Molecular Sciences, 2023).

The term inhibition denotes the relative decrease from the control value, in per cent.

For data set [1], the target named is T1, CYP1A (Homo sapiens, UniProt P05177).
T1 construct: from tissue; host or cells: human liver microsomes (HLMs)
T1 sequence (P05177 2-516 limits assumed): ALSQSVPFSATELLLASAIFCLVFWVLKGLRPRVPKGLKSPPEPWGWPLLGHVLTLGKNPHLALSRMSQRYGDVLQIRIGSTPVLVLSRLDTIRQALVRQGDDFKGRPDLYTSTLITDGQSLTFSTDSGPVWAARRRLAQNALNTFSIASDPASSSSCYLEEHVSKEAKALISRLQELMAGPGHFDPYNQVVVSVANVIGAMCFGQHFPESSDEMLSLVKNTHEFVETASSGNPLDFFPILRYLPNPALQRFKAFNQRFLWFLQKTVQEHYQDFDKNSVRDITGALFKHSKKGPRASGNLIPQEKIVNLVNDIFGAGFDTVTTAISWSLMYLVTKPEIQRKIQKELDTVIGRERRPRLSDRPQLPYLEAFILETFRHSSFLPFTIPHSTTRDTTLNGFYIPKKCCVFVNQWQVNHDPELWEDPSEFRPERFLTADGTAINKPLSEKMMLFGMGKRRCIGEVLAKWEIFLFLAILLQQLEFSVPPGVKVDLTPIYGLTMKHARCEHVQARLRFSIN
As to the kind of experiment: CYP P450 inhibition in HLMs (Eurofins Panlabs). The class given is in vitro ADME. The note with it: microsomes, S-CE-123 10 µM, range given for CYP2C9, CYP1A and CYP2D6 together, read-out: inhibition of control values. On the procedure:
(§1) In vitro metabolism assays for the cytochrome (CYP) P450 inhibition of S-CE-123 was outsourced to Eurofins Panlabs (St. Charles, MO, USA, study number 100050638). Briefly, 0.1 mg/mL of the HLMs was incubated for 10 min at 37 °C with substrate (10 µM phenacetin for CYP1A, 100 µM bupropion for CYP2B6, 10 µM amodiaquine for CYP2C8, 10 µM diclofenac for CYP2C9, 0.5 µM omeprazole for CYP2C19, 5 µM dextromethorphan for CYP2D6, 5 µM midazolam for CYP3A, and 50 µM testosterone for CYP3A4) in the presence/absence of S-CE-123 (10 µM). The peak areas corresponding to the metabolite of each substrate were recorded. The percent of control activity was then calculated by comparing the peak area obtained in the presence of the test compound to that obtained in the absence of the test compound. Subsequently, the percent inhibition was calculated by subtracting the percent control activity from 100 for each compound. The IC50 values (concentration causing a half-maximal inhibition of control values) were determined using non-linear regression analysis of the concentration–response curve using Hill equation curve fitting.

In data set [2] the target is T2, CYP2B6 (Homo sapiens, UniProt P20813).
T2 construct: from tissue; host or cells: human liver microsomes (HLMs)
T2 sequence (P20813 1-491): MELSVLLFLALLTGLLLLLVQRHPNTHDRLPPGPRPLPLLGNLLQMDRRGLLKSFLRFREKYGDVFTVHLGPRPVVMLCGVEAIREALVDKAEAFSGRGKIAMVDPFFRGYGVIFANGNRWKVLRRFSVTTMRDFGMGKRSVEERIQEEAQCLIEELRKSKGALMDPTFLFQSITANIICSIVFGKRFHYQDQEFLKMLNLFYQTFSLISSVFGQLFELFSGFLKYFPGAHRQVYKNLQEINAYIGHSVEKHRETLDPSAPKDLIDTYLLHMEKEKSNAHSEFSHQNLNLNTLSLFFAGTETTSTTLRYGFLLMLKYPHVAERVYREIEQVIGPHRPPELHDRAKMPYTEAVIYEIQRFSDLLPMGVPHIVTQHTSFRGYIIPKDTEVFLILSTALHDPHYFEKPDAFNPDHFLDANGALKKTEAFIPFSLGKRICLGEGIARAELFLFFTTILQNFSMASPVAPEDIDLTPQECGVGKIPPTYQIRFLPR
Kind of data set: CYP P450 inhibition in HLMs (Eurofins Panlabs). The format is in vitro ADME. The following applies: S-CE-123 10 µM. On the procedure: as §1

Data set [3] has as its target T3, CYP2D6 (Homo sapiens, UniProt P10635).
T3 construct: from tissue; host or cells: human liver microsomes (HLMs)
Kind of data set: CYP P450 inhibition in HLMs (Eurofins Panlabs). The class given is in vitro ADME. The note with it: microsomes, S-CE-123 10 µM, range given for CYP2C9, CYP1A and CYP2D6 together, read-out: inhibition of control values. On the procedure:
as §1

Data set [4] has as its system human isoforms of the DAT. Set-up: method as in PMID 29230168. The following applies: HEK293 cells; cited from earlier work.

T3 sequence (P10635 whole entry): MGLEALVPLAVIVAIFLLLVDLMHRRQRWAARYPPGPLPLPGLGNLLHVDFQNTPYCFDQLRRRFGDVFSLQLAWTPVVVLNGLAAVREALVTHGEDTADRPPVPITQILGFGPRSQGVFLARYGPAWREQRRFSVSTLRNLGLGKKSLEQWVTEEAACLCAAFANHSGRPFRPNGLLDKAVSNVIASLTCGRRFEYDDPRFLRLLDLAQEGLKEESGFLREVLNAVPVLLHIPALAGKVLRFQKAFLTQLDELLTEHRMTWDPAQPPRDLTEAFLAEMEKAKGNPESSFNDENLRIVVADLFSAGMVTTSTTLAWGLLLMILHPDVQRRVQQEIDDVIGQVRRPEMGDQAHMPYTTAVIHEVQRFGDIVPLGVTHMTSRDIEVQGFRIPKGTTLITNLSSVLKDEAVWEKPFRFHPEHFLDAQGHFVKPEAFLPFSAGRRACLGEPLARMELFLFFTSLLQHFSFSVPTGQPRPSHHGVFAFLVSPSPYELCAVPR

Regarding `[O-][S@@+](Cc1cncs1)C(c1ccccc1)c1ccccc1` [S-CE-123], the inhibition at 10 min, 10 µM in data set [1] and in data set [3] was 47 to 68% throughout. Besides, the “inhibition of control values” in data set [2] is on record as “Low inhibition”. Moreover, the “fold higher in vitro activity on the DAT than its R-enantiomer” value in data set [4] is around 8 fold.
